The results in this text go back to patent US20040063716A1, “Cholesterol biosynthesis inhibitors containing as the active ingredient tricyclic spiro compounds” (priority 2000, published 2004).

The subject of this assay is human plasma. The experiment in a line: Measurement of intrinsic coagulation time (APTT) in vitro. The format is biochemical. How it is done: Activated partial thromboplastin time (APTT) is measured in the presence of the test compounds diluted at various concentrations. A test compound diluted with DMSO at various concentrations is mixed with human plasma and APTT reagent. The mixture is incubated at 37° C. for 2 minutes; calcium chloride (25 mM) is added to the mixture; and the coagulation time is thereafter measured. It should be noted that the anticoagulant activity of the test compound is described in terms of the concentration required to double the coagulation time for the case where no test compound is added.

The structures appear in SMILES notation.

On to `COCCOC(=O)C12CN(S(=O)(=O)c3ccc4cc(Cl)ccc4c3)CC(=O)N1CC1(CCN(c3ccncc3)CC1)O2` (single isomer, unassigned; (-)) [Example 42, (−)-1,4-Diaza-4-(6-chloronaphthalen-2-ylsulfonyl)-6-(2-methoxyethoxycarbonyl)-7-oxa-1′-(4-pyridyl)spiro[bicyclo[4.3.0]nonane-8,4′-piperidin]-2-one], for which the “Concentration required to double coagulation time” value (shortened to “Concentration required”) was found to be 0.20 µM.

With `COCC12CN(S(=O)(=O)c3ccc4ccccc4c3)CC(=O)N1CC1(CCN(c3ccncc3)CC1)O2` (stereo not shown) [Example 6, 1,4-Diaza-6-(methoxymethyl)-4-(2-naphthalenesulfonyl)-7-oxa-1′-(4-pyridyl)spiro[bicyclo[4.3.0]nonane-8,4′-piperidin]-2-one], the “Concentration required” value worked out at 0.99 µM.

Take `O=C1CN(S(=O)(=O)c2ccc3cc(Cl)ccc3c2)CC2OC3(CCN(c4ccncc4)CC3)CN12` (stereo not shown) [Example 9, 1,4-Diaza-4-(6-chloronaphthalen-2-ylsulfonyl)-7-oxa-1′-(4-pyridyl)spiro[bicyclo[4.3.0]nonane-8,4′-piperidin]-2-one]: the “Concentration required” value is 0.29 µM.

For the molecule `COCC12CN(S(=O)(=O)c3ccc4cc(Cl)ccc4c3)CC(=O)N1CC1(CCN(c3cc[n+](C)cc3)CC1)O2.Cc1ccc(S(=O)(=O)[O-])cc1` (stereo not shown) [Example 23, 4-[1,4-Diaza-4-(6-chloronaphthalen-2-ylsulfonyl)-6-(methoxymethyl)-7-oxa-2-oxospiro[bicyclo[4.3.0]nonane-8,4′-piperidin-1′-yl]]-1-methylpyridinium p-Toluenesulfonate], the “Concentration required” value is 0.62 µM.

As for `CC(C)OC(=O)C12CN(S(=O)(=O)c3ccc4cc(Cl)ccc4c3)CC(=O)N1CC1(CCN(c3ccncc3)CC1)O2` (stereo not shown) [Example 29, 1,4-Diaza-4-(6-chloronaphthalen-2-ylsulfonyl)-6-(isopropoxycarbonyl)-7-oxa-1′-(4-pyridyl)spiro[bicyclo[4.3.0]nonane-8,4′-piperidin]-2-one], the “Concentration required” value was 0.90 µM.

Regarding `NCC12CN(S(=O)(=O)c3ccc4cc(Cl)ccc4c3)CC(=O)N1CC1(CCN(c3ccncc3)CC1)O2` (stereo not shown) [Example 58, 6-(Aminomethyl)-1,4-diaza-4-(6-chloronaphthalen-2-ylsulfonyl)-7-oxa-1′-(4-pyridyl)spiro[bicyclo[4.3.0]nonane-8,4′-piperidin]-2-one], the “Concentration required” value was 0.18 µM.

In the case of `CC12CN(S(=O)(=O)c3ccc4cc(Cl)ccc4c3)CC(=O)N1CC1(CCN(c3ccncc3)CC1)O2` (stereo not shown) [Example 69, 1,4-Diaza-4-(6-chloronaphthalen-2-ylsulfonyl)-6-methyl-7-oxa-1′-(4-pyridyl)spiro[bicyclo[4.3.0]nonane-8,4′-piperidin]-2-one], the “Concentration required” value amounted to 0.36 µM.

As to `O=C1CN(S(=O)(=O)c2cc3ccc(Cl)cc3s2)CC2NC3(CCN(c4ccncc4)CC3)CN12` (stereo not shown) [Example 275, 1,4,7-Triaza-4-(6-chlorobenzo[b]thiophen-2-ylsulfonyl)-1′-(4-pyridyl)spiro[bicyclo[4.3.0]nonane-8,4′-piperidin]-2-one], the “Concentration required” value worked out at 0.17 µM.

As to `COCC12CN(S(=O)(=O)C3=Cc4ccc(Cl)cc4OC3)CC(=O)N1CC1(CCN(c3ccncc3)CC1)O2` (stereo not shown) [Example 388, 1,4-Diaza-4-(7-chloro-2H-benzopyran-3-sulfonyl)-6-(methoxymethyl)-7-oxa-1′-(4-pyridyl)spiro[bicyclo[4.3.0]nonane-8,4′-piperidin]-2-one], the “Concentration required” value stood at 0.22 µM.

On to `COCC12CN(S(=O)(=O)c3cc4ccc(Cl)cc4s3)CC(=O)N1CC1(CCN(c3ccncc3)CC1)O2` (stereo not shown) [Example 399, 1,4-Diaza-4-(6-chlorobenzo[b]thiophen-2-ylsulfonyl)-6-(methoxymethyl)-7-oxa-1′-(4-pyridyl)spiro[bicyclo[4.3.0]nonane-8,4′-piperidin]-2-one], for which the “Concentration required” value was 0.18 µM.
